Drawing on patent US20230061432A1, “NEW TECHNOLOGY TO CONJUGATE THE TACCALONOLIDE MICROTUBULE STABILIZERS WITH LINKERS/PAYLOADS” (priority 2019, published 2023), this text covers GI50 and pKa for 17 compounds.

For one data set, the system named is HeLa cells. As to the kind of experiment: sulforhodamine B (SRB) antiproliferative assay. It is filed as cell-based, human. Conditions: Homo sapiens, HeLa; Table 5; read-out: GI50 in HeLa. An excerpt: HCC1806 (CRL-2335) and HCC1937 (CRL-2336) human triple-negative breast cancer cells, HeLa (CCL-2) cervical cancer cells and SK-OV-3 (HTB-77) ovarian cancer cells were obtained from ATCC (Manassas, Va.) and validated by STR profiling (Genetica). SK-OV-3 cells stably overexpressing Pgp by adenoviral-mediated expression of MDR1 were obtained from Dr. Susan Kane and subcloned by limiting dilution to isolate the single-cell clones utilized in these studies as SK-OV-3-MDR-1-6/6 (Risinger, A. L. et al. (2008) Cancer Res. 68, 8881-8888). A single-cell clone from transfection of HeLa cells with βIII-tubulin, designated wild type βIII, was constructed and obtained from Dr. Richard Luduena (Risinger, A. L. et al. (2008) Cancer Res. 68, 8881-8888). HCC1806 and HCC1937 cells were cultured in RPMI 1640 media (Corning) with 10% FBS (Cellgro) and 50 μg/mL gentamicin (Gibco). HeLa, […] expressing HeLa, SK-OV-3 and SK-OV-3/MDR-1-6/6 cells were grown in BME media with Earle's salts (Gibco) with 10% FBS, 1× final 1% GlutaMax™ Supplement (Gibco), and […] gentamicin. The use of HeLa cells allows for the direct comparison of the in vitro potency as compared to other compounds of this class, which have been predominantly reported in this line and compound potencies are consistent among three additional cancer cell lines. HeLa cells were also used for ectopic expression of tubulin mutants due to the high degree of transfectability of this cell line. Cells were tested for mycoplasma contamination using the Mycoplasma Detection Kit-Quick Test (Cat: B39032, Lot: JW004).
The sulforhodamine B (SRB) assay was utilized to examine the antiproliferative and cytotoxic effects of the compounds (Skehan, P. et al. (1990) J. Natl. Cancer Inst. 82, 1107-1112; Vichai and Kirtikara (2006) Nat. Protoc. 1, 1112-1116). Approximately 2,000 cells per well (for SK-OV-3, HeLa and βIII-tubulin expressing HeLa) or 4,000 cells per well (for HCC1806 and HCC1937) were seeded in 96-well plates. For each biological replicate, cells were treated in triplicate with each concentration of compound or vehicle control for 48 h in a final volume of 200 μL. The plates were fixed with 10% trichloroacetic acid for protein precipitation of adherent cells and then washed with distilled water. 100 μL of SRB dye, which binds protein stoichiometrically, was added and then unbound dye removed with 1% acetic acid followed by the addition of 200 μL 10 mM Tris to solubilize the dye, which was quantified by absorbance at 560 nm. The percent growth of treated cells relative to the density at the time of drug addiction was calculated as compared to vehicle treated cells.

The conditions of data set [1]: unprotected form; Mottram et al. 2006; cited from earlier work.

Take `CC(=O)O[C@H]1[C@H]2C([C@@H](O)[C@@H](NC(=O)c3ccc4c(c3)C(=O)OC43c4ccc(OC(=O)C(C)(C)C)cc4Oc4cc(OC(=O)C(C)(C)C)ccc43)[C@H]3C[C@@H]4O[C@@H]4[C@H](OC(C)=O)[C@@]32C)[C@@H]2[C@@H](O)[C@@H]3[C@H]([C@H](C)[C@H]4O[C@]45OC(=O)[C@@](C)(O)[C@]35C)[C@@]2(C)[C@H]1OC(C)=O` (some centres unmarked) [164B]: in the data set on HeLa cells, the GI50 worked out at 0.031 µM.

In the case of `CC(=O)O[C@H]1[C@H]2[C@@H]([C@@H](O)[C@@H](NC(=O)CCCCCCn3cc(COc4ccc5c(c4)Oc4cc(O)ccc4C54OC(=O)c5ccccc54)nn3)[C@H]3C[C@@H]4O[C@@H]4[C@H](OC(C)=O)[C@]23C)[C@@H]2[C@@H](O)[C@@H]3[C@H]([C@H](C)[C@H]4O[C@]45OC(=O)[C@@](C)(O)[C@]35C)[C@@]2(C)[C@H]1OC(C)=O` (some centres unmarked) [158F], the GI50 in the data set with HeLa cells came out at 6 µM. Turning to `O=C1OC2(c3ccc(O)cc3Oc3cc(O)ccc32)c2ccccc21` [fluorescein], the pKa in data set [1] is reported as 6.5. For `CC(=O)O[C@H]1[C@H]2[C@@H]([C@@H](O)[C@@H](NC(=O)CCCn3cc(COc4ccc5c(c4)Oc4cc(O)ccc4C54OC(=O)c5ccccc54)nn3)[C@H]3C[C@@H]4O[C@@H]4[C@H](OC(C)=O)[C@]23C)[C@@H]2[C@@H](O)[C@@H]3[C@H]([C@H](C)[C@H]4O[C@]45OC(=O)[C@@](C)(O)[C@]35C)[C@@]2(C)[C@H]1OC(C)=O` (some centres unmarked) [155G], the concentration for 50% growth inhibition (GI50) with HeLa cells was 8.4 µM.

`CC(=O)O[C@H]1[C@H]2[C@@H]([C@@H](O)[C@@H](NC(=O)CCCn3cc(CNC(=O)CCCC[C@@H]4SC[C@@H]5NC(=O)N[C@@H]54)nn3)[C@H]3C[C@@H]4O[C@@H]4[C@H](OC(C)=O)[C@]23C)[C@@H]2[C@@H](O)[C@@H]3[C@H]([C@H](C)[C@H]4O[C@]45OC(=O)[C@@](C)(O)[C@]35C)[C@@]2(C)[C@H]1OC(C)=O` [154C]: in the data set with HeLa cells, the GI50 was above 10 µM.

With `CC(=O)O[C@H]1[C@H]2[C@@H]([C@@H](O)[C@@H](NC(=O)CCCCCCn3cc(COc4cc5c(cc4F)C4(OC(=O)c6ccccc64)c4cc(F)c(O)cc4O5)nn3)[C@H]3C[C@@H]4O[C@@H]4[C@H](OC(C)=O)[C@]23C)[C@@H]2[C@@H](O)[C@@H]3[C@H]([C@H](C)[C@H]4O[C@]45OC(=O)[C@@](C)(O)[C@]35C)[C@@]2(C)[C@H]1OC(C)=O` (some centres unmarked) [158E], in the data set on HeLa cells, the GI50 is above 10 µM. Consider `O=C(O)c1ccccc1-c1c2cc(F)c(=O)cc-2oc2cc(O)c(F)cc12` [Oregon Green, Oregon green], for which the pKa in data set [1] was 4.8.

Take `CC(=O)O[C@H]1[C@H]2[C@@H]([C@@H](O)[C@@H](NC(=O)CCNC(=O)c3ccc4c(c3)C(=O)OC43c4ccc(OC(=O)C(C)(C)C)cc4Oc4cc(OC(=O)C(C)(C)C)ccc43)[C@H]3C[C@@H]4O[C@@H]4[C@H](OC(C)=O)[C@]23C)[C@@H]2[C@@H](O)[C@@H]3[C@H]([C@H](C)[C@H]4O[C@]45OC(=O)[C@@](C)(O)[C@]35C)[C@@]2(C)[C@H]1OC(C)=O` [163D]: in the data set on HeLa cells, the GI50 is 2 µM. Same read-out and setting: under `CC(=O)O[C@H]1[C@H]2[C@@H]([C@@H](O)[C@@H](NC(=O)CNC(=O)c3ccc4c(c3)C(=O)OC43c4ccc(OC(=O)C(C)(C)C)cc4Oc4cc(OC(=O)C(C)(C)C)ccc43)[C@H]3C[C@@H]4O[C@@H]4[C@H](OC(C)=O)[C@]23C)[C@@H]2[C@@H](O)[C@@H]3[C@H]([C@H](C)[C@H]4O[C@]45OC(=O)[C@@](C)(O)[C@]35C)[C@@]2(C)[C@H]1OC(C)=O` [164E] stands 0.74 µM; under `CC(=O)O[C@H]1[C@H]2[C@@H]([C@@H](O)[C@@H](NC(=O)CCCn3cc(CCC(=O)NCCCC[C@@H](NC(=O)[C@H](Cc4ccc(O)cc4)NC(=O)[C@H](CO)NC(=O)[C@H](Cc4c[nH]c5ccccc45)NC(=O)[C@H](Cc4c[nH]cn4)NC(=O)[C@@H]4CCC(=O)N4)C(=O)N[C@@H](CC(C)C)C(=O)N[C@@H](CCCNC(=N)N)C(=O)N4CCC[C@H]4C(=O)NCC(N)=O)nn3)[C@H]3C[C@@H]4O[C@@H]4[C@H](OC(C)=O)[C@]23C)[C@@H]2[C@@H](O)[C@@H]3[C@H]([C@H](C)[C@H]4O[C@]45OC(=O)[C@@](C)(O)[C@]35C)[C@@]2(C)[C@H]1OC(C)=O` [171B], 2.6 µM.

For the compound `CC(=O)Oc1cc2c(cc1F)C1(OC(=O)c3cc(C(=O)NCCC(=O)N[C@@H]4[C@H](O)[C@H]5[C@@H]6[C@@H](O)[C@@H]7[C@H]([C@H](C)[C@H]8O[C@]89OC(=O)[C@@](C)(O)[C@]79C)[C@@]6(C)[C@@H](OC(C)=O)[C@@H](OC(C)=O)[C@@H]5[C@]5(C)[C@@H]4C[C@@H]4O[C@@H]4[C@@H]5OC(C)=O)ccc31)c1cc(F)c(OC(C)=O)cc1O2` [163E], the 50% growth inhibitory concentration (GI50) in the data set with HeLa cells was above 10 µM. For `CC(=O)Oc1cc2c(cc1F)C1(OC(=O)c3cc(C(=O)NCc4cn(CCCC(=O)N[C@@H]5[C@H](O)[C@H]6[C@@H]7[C@@H](O)[C@@H]8[C@H]([C@H](C)[C@H]9O[C@]9%10OC(=O)[C@@](C)(O)[C@]8%10C)[C@@]7(C)[C@@H](OC(C)=O)[C@@H](OC(C)=O)[C@@H]6[C@]6(C)[C@@H]5C[C@@H]5O[C@@H]5[C@@H]6OC(C)=O)nn4)ccc31)c1cc(F)c(OC(C)=O)cc1O2` [154J], the GI50 with HeLa cells is above 10 µM.

Take `CC(=O)O[C@H]1[C@H]2[C@@H]([C@@H](O)[C@@H](NC(=O)CCCn3cc(COc4cc5c(cc4F)C4(OC(=O)c6ccccc64)c4cc(F)c(O)cc4O5)nn3)[C@H]3C[C@@H]4O[C@@H]4[C@H](OC(C)=O)[C@]23C)[C@@H]2[C@@H](O)[C@@H]3[C@H]([C@H](C)[C@H]4O[C@]45OC(=O)[C@@](C)(O)[C@]35C)[C@@]2(C)[C@H]1OC(C)=O` (some centres unmarked) [155F]: the GI50 in the data set with HeLa cells was found to be 3.7 µM. Same read-out and setting: under `CC(=O)O[C@H]1[C@H]2[C@@H]([C@@H](O)[C@@H](NC(=O)CCCN=[N+]=[N-])[C@H]3C[C@@H]4O[C@@H]4[C@H](OC(C)=O)[C@]23C)[C@@H]2[C@@H](O)[C@@H]3[C@H]([C@H](C)[C@H]4O[C@]45OC(=O)[C@@](C)(O)[C@]35C)[C@@]2(C)[C@H]1OC(C)=O` [152E] stands 0.09 µM; under `CC(=O)Oc1ccc2c(c1)Oc1cc(OC(C)=O)ccc1C21OC(=O)c2cc(C(=O)NCCC(=O)N[C@@H]3[C@H](O)[C@H]4[C@@H]5[C@@H](O)[C@@H]6[C@H]([C@H](C)[C@H]7O[C@]78OC(=O)[C@@](C)(O)[C@]68C)[C@@]5(C)[C@@H](OC(C)=O)[C@@H](OC(C)=O)[C@@H]4[C@]4(C)[C@@H]3C[C@@H]3O[C@@H]3[C@@H]4OC(C)=O)ccc21` [162C], 10 µM. Regarding `CC(=O)O[C@H]1[C@H]2[C@@H]([C@@H](O)[C@@H](NC(=O)CCCn3cc(CNC(=O)c4ccc(-c5c6cc(F)c(=O)cc-6oc6cc(O)c(F)cc56)c(C(=O)O)c4)nn3)[C@H]3C[C@@H]4O[C@@H]4[C@H](OC(C)=O)[C@]23C)[C@@H]2[C@@H](O)[C@@H]3[C@H]([C@H](C)[C@H]4O[C@]45OC(=O)[C@@](C)(O)[C@]35C)[C@@]2(C)[C@H]1OC(C)=O` [154B], the 50% growth inhibitory concentration (GI50) in the data set with HeLa cells was above 10 µM.

On to `CC(=O)O[C@H]1[C@H]2[C@@H]([C@@H](O)[C@H](NC(=O)CCCN=[N+]=[N-])[C@H]3C[C@@H]4O[C@@H]4[C@H](OC(C)=O)[C@]23C)[C@@H]2[C@@H](O)[C@@H]3[C@H]([C@H](C)[C@H]4O[C@]45OC(=O)[C@@](C)(O)[C@]35C)[C@@]2(C)[C@H]1OC(C)=O` [152D], for which, in the data set on HeLa cells, the GI50 came to 0.12 µM.

In general, GI50 refers to the concentration at which growth is held to half of that of the control. Broadly, the pKa is the pH at which an ionisable group is half protonated.
